The subject of test [1] is Enterococcus faecalis (FRE) ATCC 51299. The test can be described thus: Antimicrobial growth inhibition, E. faecalis. Format: cell-based. Conditions: ATCC51299; Enterococcus faecalis ATCC 51299, 100 μM. Here is the method:
Evaluation of antimicrobial activity in vitro. Compounds were tested against the following panel of bacteria and fungi purchased from the American Type Culture Collection (ATCC). Briefly, bacteria were grown to mid-log phase, diluted with fresh medium to an optical density at 600 nm (OD600) of 0.030-0.060 and then diluted again 1:10. This suspension (195 μL) was added to wells in a 96 well microtiter plate (Sarstedt) and 5 μL of compound dissolved in DMSO was added to give a final concentration of 100-0.1 μM at 2.5% DMSO by volume. A DMSO negative control and standard antibiotic positive controls were included in each plate. All compounds were tested in triplicate for each concentration. Plates were sealed with parafilm, placed in a Ziploc bag to prevent evaporation, and incubated at 30° C. (fungi) or 37° C. (bacteria) for 16-20 hours (48 hours for C. neoformans). The OD600 values for each well were determined with a plate reader (Biotek, EL800) and the data were standardized to the DMSO control wells after subtracting the background from blank medium. Initial single concentrations were tested at 100 μM and active compounds were further tested with at least nine concentrations for a full dose response. Dose response curves were generated using GraphPad Prism 5 software and used to determine the MIC95 concentrations (minimal concentration that inhibits 95% of growth). […]

The subject of test [2] is MDA-MB-231 cells. The test can be described thus: MTT cytotoxicity, MDA-MB-231. Format: cell-based. Conditions: Homo sapiens; MDA-MB-231, cell viability (MTT), 48 h; read-out: IC80 (equitoxic dose). Here is the method: Human metastatic breast cancer MDA-MB-231 cells were obtained from the American Type Culture Collection (ATCC) (Rockville, Md.) and maintained in Dulbecco's Modified Eagle's Medium (DMEM) containing 10% fetal bovine serum (FBS) without antibiotics at 37° C. in a humidified, CO2-controlled incubator. The cytotoxicity of compounds 1 and 2 was assessed by reduction of 3-(4, 5-dimethylthiazol-2-yl)-2,5-diphenyltetrazolium bromide (MTT). MDA-MB-231 cells were seeded in 96-well plates at 5×10^3 cells per well and treated with a range of drug concentrations. After 48 hours, cell viability was measured using the MTT Cell Proliferation Assay kit (ATCC) according to the manufacturer's instructions. Percent cell viability was plotted as a function of drug concentrations and analyzed using a sigmoidal dose response function with PRISM v3.03 software (GraphPad) to resolve drug concentrations yielding 50% cell death (IC50). The cell cycle distributions of MDA-MB-231 cells treated with compounds 1 or 2 were analyzed using propidium iodide staining and flow cytometry. 2×10^6 cells were seeded in 100 mm dishes and treated with compounds 1 or 2 at the IC80 values determined by cell viability assays or an equivalent volume of DMSO. 48 h following treatment the cells were collected, fixed, and stained with propidium iodide (Sigma Aldrich) immediately before analysis by flow cytometry.

The next test concerns twenty kinases. The test can be described thus: Select Screen kinase profiling, twenty kinases. The class given is biochemical. Conditions: 5 μM. An excerpt:
(§1) The thieno[3,2-d]pyrimidine scaffold has been used extensively in the design of kinase inhibitors.

The next test addresses FRAP1 (mTOR) (Homo sapiens, UniProt P42345). As to the kind of experiment: Select Screen kinase profiling. The class given is biochemical.
From the text: as §1

Another test has as its target JAK1 (Homo sapiens, UniProt P23458). As to the kind of experiment: Select Screen kinase profiling. Format: biochemical.
From the text: as §1

For a further test, the target named is JAK2 (Homo sapiens, UniProt O60674). The test can be described thus: Select Screen kinase profiling. The class given is biochemical.
Sequence of JAK2 (O60674 whole entry): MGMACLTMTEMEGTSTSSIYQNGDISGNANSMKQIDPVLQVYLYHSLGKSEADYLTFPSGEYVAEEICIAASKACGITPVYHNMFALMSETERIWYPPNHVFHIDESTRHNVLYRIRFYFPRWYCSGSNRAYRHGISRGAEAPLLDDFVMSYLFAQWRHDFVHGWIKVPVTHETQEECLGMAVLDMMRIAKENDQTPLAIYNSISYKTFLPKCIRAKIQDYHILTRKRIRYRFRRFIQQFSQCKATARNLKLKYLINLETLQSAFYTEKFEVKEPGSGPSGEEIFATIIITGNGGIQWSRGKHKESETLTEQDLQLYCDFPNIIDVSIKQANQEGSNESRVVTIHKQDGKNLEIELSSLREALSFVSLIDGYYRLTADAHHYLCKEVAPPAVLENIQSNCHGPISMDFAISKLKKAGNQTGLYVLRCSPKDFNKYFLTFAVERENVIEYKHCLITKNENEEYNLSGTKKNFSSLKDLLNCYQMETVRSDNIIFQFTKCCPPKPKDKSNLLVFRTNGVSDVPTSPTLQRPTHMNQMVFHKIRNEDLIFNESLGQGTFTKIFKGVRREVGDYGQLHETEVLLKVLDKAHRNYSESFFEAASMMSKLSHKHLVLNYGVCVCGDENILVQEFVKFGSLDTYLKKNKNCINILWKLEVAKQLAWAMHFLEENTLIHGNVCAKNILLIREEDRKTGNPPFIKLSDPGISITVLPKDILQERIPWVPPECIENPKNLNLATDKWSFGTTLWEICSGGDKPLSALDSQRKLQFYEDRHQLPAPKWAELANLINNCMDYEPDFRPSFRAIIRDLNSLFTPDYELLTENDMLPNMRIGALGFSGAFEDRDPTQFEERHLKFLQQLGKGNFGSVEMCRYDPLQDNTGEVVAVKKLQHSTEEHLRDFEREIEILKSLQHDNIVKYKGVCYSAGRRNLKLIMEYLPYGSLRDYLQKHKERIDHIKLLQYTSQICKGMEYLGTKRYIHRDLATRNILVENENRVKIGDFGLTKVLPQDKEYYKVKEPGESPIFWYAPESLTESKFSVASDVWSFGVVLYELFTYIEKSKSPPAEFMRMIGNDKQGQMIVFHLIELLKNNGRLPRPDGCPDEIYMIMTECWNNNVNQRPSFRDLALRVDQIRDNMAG
From the text: as §1

A further test has as its target T1, JAK2 JHI JH2 (Homo sapiens, UniProt O60674).
T1 construct: JAK2 JHI JH2
As to the kind of experiment: Select Screen kinase profiling. The class given is biochemical.
From the text: as §1

The target in a further test is LTK (TYK1) (Homo sapiens, UniProt P29376). As to the kind of experiment: Select Screen kinase profiling. The class given is biochemical.
Sequence of LTK (TYK1) (P29376 17-864): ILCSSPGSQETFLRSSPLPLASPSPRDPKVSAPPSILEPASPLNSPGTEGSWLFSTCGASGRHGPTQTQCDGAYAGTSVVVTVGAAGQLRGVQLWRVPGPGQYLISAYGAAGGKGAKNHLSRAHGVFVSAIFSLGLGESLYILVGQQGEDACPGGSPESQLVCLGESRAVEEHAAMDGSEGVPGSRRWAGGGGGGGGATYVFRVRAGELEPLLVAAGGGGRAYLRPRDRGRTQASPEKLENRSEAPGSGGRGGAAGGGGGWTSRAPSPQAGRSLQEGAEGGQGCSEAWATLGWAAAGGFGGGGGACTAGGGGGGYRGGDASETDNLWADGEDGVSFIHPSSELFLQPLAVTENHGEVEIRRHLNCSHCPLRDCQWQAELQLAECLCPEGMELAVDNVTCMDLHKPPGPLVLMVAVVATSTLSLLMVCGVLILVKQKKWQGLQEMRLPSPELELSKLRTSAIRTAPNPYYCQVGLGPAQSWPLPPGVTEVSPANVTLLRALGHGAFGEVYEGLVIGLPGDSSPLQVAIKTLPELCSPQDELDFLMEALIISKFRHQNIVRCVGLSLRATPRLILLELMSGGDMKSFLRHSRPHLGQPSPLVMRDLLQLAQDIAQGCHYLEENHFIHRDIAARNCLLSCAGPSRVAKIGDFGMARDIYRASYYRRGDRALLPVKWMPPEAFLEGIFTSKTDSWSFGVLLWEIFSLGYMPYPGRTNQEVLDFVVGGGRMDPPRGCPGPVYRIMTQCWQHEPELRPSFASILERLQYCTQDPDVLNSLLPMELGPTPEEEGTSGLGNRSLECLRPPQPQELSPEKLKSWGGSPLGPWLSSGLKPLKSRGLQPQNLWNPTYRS
From the text: as §1

For another test, the target named is MET (cMet) (Homo sapiens, UniProt P08581). As to the kind of experiment: Select Screen kinase profiling. Format: biochemical.
From the text: as §1

Another test deals with PIK3C2A (Homo sapiens, UniProt O00443). As to the kind of experiment: Select Screen kinase profiling. Format: biochemical.
From the text: as §1

Another test concerns the target PIK3CD/PIK3R1 (Homo sapiens, UniProt O00329). The test can be described thus: Select Screen kinase profiling. Format: biochemical.
From the text: as §1

The target of a further test is SRC N1 (Homo sapiens, UniProt P12931). As to the kind of experiment: Select Screen kinase profiling. The class given is biochemical.
Sequence of SRC N1 (P12931 1-542 isoform P12931-2): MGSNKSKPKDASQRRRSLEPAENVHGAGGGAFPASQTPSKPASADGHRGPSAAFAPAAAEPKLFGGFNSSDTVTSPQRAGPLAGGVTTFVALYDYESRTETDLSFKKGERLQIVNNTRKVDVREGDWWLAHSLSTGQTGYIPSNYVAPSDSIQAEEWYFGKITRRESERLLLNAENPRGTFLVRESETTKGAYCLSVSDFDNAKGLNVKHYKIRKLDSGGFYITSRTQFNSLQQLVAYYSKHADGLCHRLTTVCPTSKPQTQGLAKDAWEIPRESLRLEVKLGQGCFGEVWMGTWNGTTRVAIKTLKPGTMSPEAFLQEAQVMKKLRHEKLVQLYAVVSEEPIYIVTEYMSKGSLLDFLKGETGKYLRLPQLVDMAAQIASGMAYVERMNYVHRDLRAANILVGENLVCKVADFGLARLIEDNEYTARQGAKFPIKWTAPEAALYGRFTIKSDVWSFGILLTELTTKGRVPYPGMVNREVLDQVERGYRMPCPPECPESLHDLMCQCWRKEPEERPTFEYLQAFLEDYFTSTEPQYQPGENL
From the text: as §1

The target in a further test is TYK2 (Homo sapiens, UniProt P29597). The test can be described thus: Select Screen kinase profiling. Format: biochemical.
Sequence of TYK2 (P29597 whole entry): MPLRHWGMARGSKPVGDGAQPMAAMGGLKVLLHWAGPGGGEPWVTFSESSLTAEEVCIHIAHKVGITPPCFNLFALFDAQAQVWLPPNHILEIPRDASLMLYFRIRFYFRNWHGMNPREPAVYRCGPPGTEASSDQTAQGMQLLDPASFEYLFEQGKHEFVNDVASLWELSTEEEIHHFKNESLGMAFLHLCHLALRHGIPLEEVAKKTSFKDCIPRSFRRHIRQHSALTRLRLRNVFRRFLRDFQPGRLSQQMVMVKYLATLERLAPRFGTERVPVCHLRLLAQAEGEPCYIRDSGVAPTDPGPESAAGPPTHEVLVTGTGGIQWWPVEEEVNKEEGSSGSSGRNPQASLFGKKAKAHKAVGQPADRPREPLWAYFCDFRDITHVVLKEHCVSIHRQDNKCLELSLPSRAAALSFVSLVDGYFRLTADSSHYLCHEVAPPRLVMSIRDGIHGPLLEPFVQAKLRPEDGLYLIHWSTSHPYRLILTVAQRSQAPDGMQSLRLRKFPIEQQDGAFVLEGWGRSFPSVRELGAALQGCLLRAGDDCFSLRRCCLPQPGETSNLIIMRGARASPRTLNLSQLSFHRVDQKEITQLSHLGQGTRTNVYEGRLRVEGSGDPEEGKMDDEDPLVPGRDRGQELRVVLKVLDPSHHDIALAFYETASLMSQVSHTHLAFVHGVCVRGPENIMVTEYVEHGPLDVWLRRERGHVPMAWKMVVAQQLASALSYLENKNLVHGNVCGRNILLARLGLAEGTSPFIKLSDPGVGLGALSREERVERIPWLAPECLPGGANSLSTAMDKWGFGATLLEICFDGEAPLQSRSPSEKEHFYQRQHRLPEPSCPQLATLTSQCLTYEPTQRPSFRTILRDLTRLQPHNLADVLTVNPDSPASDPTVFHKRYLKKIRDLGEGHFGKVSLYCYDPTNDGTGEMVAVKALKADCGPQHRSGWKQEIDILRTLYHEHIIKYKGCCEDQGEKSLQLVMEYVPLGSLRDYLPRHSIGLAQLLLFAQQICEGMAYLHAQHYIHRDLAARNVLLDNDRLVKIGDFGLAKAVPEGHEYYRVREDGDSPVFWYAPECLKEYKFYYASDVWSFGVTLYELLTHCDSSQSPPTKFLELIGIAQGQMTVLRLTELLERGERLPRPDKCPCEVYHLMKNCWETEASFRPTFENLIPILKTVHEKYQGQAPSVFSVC
From the text: as §1

Test [3] concerns human lymphocytic CEM cells. The test can be described thus: Cell proliferation assay, CEM. The class given is cell-based. Conditions: CCRF-CEM, 72 h proliferation, Coulter counter. Here is the method:
Cell proliferation assays for several of the compounds were performed on L1210, a mouse lymphocytic leukemia cell line; CCRF-CEM [39] an acute lymphoblastic leukemia cell line; and HeLa, a human cancer cell line derived from a human cervical adenocarcinoma. Murine Leukemia L1210, human lymphocytic CEM and human cervix carcinoma HeLa cells were obtained from the American Type Culture Collection (ATCC) (Rockville, Md.). All assays were performed in 96-well microtiter plates. To each well were added (5-7.5)×10^4 tumor cells and a given amount of the test compound. The cells were allowed to proliferate for 48 h (murine leukemia L1210 cells) or 72 h (human lymphocytic CEM and human cervix carcinoma HeLa cells) at 37° C. in a humidified CO2-controlled atmosphere. At the end of the incubation period, the cells were counted in a Coulter counter. The IC50 (50% inhibitory concentration) was defined as the concentration of the compound that inhibited cell proliferation by 50%. […] Presence of C7 iodine on the 2,4-dichloro pyrrolo[3,2-d] (compound 20) increases the anticancer activity by a factor of 5 when compared to compound 19. […] This alludes to a) importance of C7-I towards activity against cancer cell lines for the 2,4-O-benzylated analogues (15 and 16).

The subject of test [4] is MDA-MB-231 cells. The test can be described thus: Apoptosis (annexin V), MDA-MB-231. Conditions: MDA-MB-231, tested concentration. The class given is cell-based, human. Here is the method: Cell-cycle and apoptosis studies were conducted in MDA-MB-231 cells. Cell-cycle analysis of compound 19 at 15 μM concentration lead to arrest of 60% cells in G2/M stage. Similarly, at 1.75 μM concentration, compound 20 arrested 30% of cells in G2/M stage. […] To evaluate the possible mechanism for arrest of cell proliferation, cell-cycle distribution was measured using propidium iodide staining and flow cytometry. […] There are several possibilities that could account for this, including: (i) that cell lysis occurs rapidly following induction of apoptosis, preventing significant accumulation of annexin V-positive bodies, or (ii) that a distinct cell death pathway is triggered by compound 19.

T1 sequence (O60674 532-1132 limits assumed): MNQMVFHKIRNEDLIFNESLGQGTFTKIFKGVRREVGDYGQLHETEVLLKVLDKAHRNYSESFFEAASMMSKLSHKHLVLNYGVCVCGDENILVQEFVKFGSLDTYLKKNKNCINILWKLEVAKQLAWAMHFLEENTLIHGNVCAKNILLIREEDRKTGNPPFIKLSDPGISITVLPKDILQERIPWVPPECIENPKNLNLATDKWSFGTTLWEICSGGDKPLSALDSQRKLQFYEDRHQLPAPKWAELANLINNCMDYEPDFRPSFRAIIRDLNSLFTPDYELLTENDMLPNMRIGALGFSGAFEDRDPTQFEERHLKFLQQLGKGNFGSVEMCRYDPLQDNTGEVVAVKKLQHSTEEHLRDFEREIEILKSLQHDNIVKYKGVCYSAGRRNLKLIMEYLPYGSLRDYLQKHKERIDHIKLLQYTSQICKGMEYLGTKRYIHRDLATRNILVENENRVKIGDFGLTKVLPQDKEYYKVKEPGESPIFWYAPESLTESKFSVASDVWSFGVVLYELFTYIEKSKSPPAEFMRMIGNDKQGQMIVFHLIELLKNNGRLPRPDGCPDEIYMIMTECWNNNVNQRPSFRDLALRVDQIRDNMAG

Compound `Clc1nc(Cl)c2sccc2n1` [Compound 1, 2,4-Dichlorothieno[3,2-d]pyrimidine] yielded an inhibition at 100 µM in test [1] of less than 43%. Further, the IC80 in the test on MDA-MB-231 cells [2] was determined as 15 µM. For the same compound, the “inhibitory activity against twenty kinases” value in the test with twenty kinases is listed as “did not exhibit any substantial inhibitory activity”. Besides, the inhibition at 5 µM against FRAP1 (mTOR), against JAK1, against JAK2, on JAK2 JHI JH2, at LTK (TYK1) and against MET (cMet) was less than 40% each time. Further, the inhibition at 5 µM against PIK3C2A, on PIK3CD/PIK3R1, against SRC N1 and at TYK2 was less than 40% in each case.

`Clc1nc(Cl)c2scc(Br)c2n1` [Compound 2, 7-Bromo-2,4-dichlorothieno[3,2-d]pyrimidine]: the inhibition at 100 µM in test [1] is less than 43%. Further, the IC80 in the test with MDA-MB-231 cells [2] turned out to be 8 µM. Moreover, in the test on twenty kinases, the “inhibitory activity against twenty kinases” value is “did not exhibit any substantial inhibitory activity”.

In turn, `Clc1nc(Cl)c2[nH]ccc2n1` [Compound 19, 2,4-Dichloropyrrolo[3,2-d]pyrimidine] gave an IC50 in test [3] of 25 µM. Besides, the “annexin V-positive cells” value in the test with MDA-MB-231 cells [4] is on record as “modest (although statistically significant) increase”.

As a reminder, the inhibition is the share of the control response that was lost under treatment. A lower inhibition goes with little suppression. One may read the IC80 as the concentration needed for an effect of 80%. As a reminder, the IC50 is the midpoint of a concentration-inhibition curve. A low value points to higher potency.

The values are drawn from patent US10561658B2, “Thieno- and pyrrolopyrimidine analogues as anticancer agents and methods of use thereof” (UNIVERSITY OF MARYLAND, BALTIMORE COUNTY, priority 2015, dated 2020).
